Earlier results on one molecule are cited in patent US20110144047A1, “COMBINED METHOD FOR PREDICTING THE RESPONSE TO AN ANTI-CANCER THERAPY” (DAKO DENMARK A/S, priority 2008, published 2011).

SMILES strings stand for the structures.

For the series, the system named is murine fibro sarcoma cells derived from TIMP-1 gene-deficient mice. Conditions: in vitro; previously published by the inventors.

Consider `COc1cc([C@@H]2c3cc4c(cc3[C@@H](O[C@@H]3O[C@@H]5CO[C@@H](C)O[C@H]5[C@H](O)[C@H]3O)[C@H]3COC(=O)[C@H]23)OCO4)cc(OC)c1O` [etoposide], for which the “sensitivity of TIMP-1 gene-deficient cells compared with wild-type cells expressing TIMP-1” value is “significantly more sensitive”.
